From ChEMBL document CHEMBL1201862, “PubChem BioAssay data set” (2004)
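48-hour exposure; five concentrations; linearly interpolated endpoints. The concentration for 50% growth inhibition is given as GI50.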 Activity calls are given as the source filed them. Rule as the data show it: active = GI50 up to about 1.1 µM and inactive = higher.

Key:
Assay in all cases: DTP human tumour cell line panel, 48 h
[1] = tested on: 786-0
[2] = tested on: A498
[3] = tested on: A549
[4] = tested on: ACHN
[5] = tested on: CAKI-1
[6] = tested on: CCRF-CEM
[7] = tested on: COLO 205
[8] = tested on: DLD-1
[9] = tested on: DMS-114
[10] = tested on: DMS-273
[11] = tested on: EKVX
[12] = tested on: HCC 2998
[13] = tested on: HCT-116
[14] = tested on: HCT-15
[15] = tested on: HL-60
[16] = tested on: HOP-18
[17] = tested on: HOP-62
[18] = tested on: HOP-92
[19] = tested on: IGROV-1
[20] = tested on: K562
[21] = tested on: KM-20L2
[22] = tested on: KM12
[23] = tested on: LOX IMVI
[24] = tested on: LXFL 529
[25] = tested on: M14
[26] = tested on: M19-MEL
[27] = tested on: MOLT-4
[28] = tested on: Malme-3M
[29] = tested on: NCI-H226
[30] = tested on: NCI-H23
[31] = tested on: NCI-H460
[32] = tested on: NCI-H522
[33] = tested on: OVCAR-3
[34] = tested on: OVCAR-4
[35] = tested on: OVCAR-5
[36] = tested on: OVCAR-8
[37] = tested on: RPMI-8226
[38] = tested on: SF-268
[39] = tested on: SF-539
[40] = tested on: SK-MEL-28
[41] = tested on: SK-MEL-2
[42] = tested on: SK-MEL-5
[43] = tested on: SK-OV-3
[44] = tested on: SN12C
[45] = tested on: SNB-19
[46] = tested on: SNB-75
[47] = tested on: SR
[48] = tested on: SW-620
[49] = tested on: TK-10
[50] = tested on: U-251
[51] = tested on: UACC-257
[52] = tested on: UACC-62
[53] = tested on: UO-31
[54] = tested on: XF498
[55] = tested on: HT-29
[56] = tested on: RXF 393
[57] = tested on: SF-295
[58] = tested on: SNB-78

Measured: GI50

N#C/C(c1nc2ccccc2[nH]1)=c1\s/c(=C/c2ccc(Cl)cc2)c(=O)n1-c1ccccc1
inactive: [1] > 100 µM | [2] > 100 µM | [3] > 100 µM | [4] > 100 µM | [5] > 100 µM | [6] > 100 µM | [7] > 100 µM | [8] > 100 µM | [9] > 100 µM | [10] > 100 µM | [11] > 100 µM | [12] > 100 µM | [13] > 100 µM | [15] > 100 µM | [16] > 100 µM | [17] > 100 µM | [18] > 100 µM | [19] 15.7 µM | [20] > 100 µM | [21] > 100 µM | [22] > 100 µM | [23] > 100 µM | [24] > 100 µM | [25] > 100 µM | [26] > 100 µM | [27] > 100 µM | [28] > 100 µM | [29] > 100 µM | [30] > 100 µM | [31] > 100 µM | [32] > 100 µM | [33] > 100 µM | [34] > 100 µM | [35] > 100 µM | [36] > 100 µM | [37] > 100 µM | [38] > 100 µM | [39] > 100 µM | [40] > 100 µM | [41] > 100 µM | [42] > 100 µM | [43] > 100 µM | [44] > 100 µM | [45] > 100 µM | [46] 37.3 µM | [47] > 100 µM | [48] > 100 µM | [49] > 100 µM | [50] > 100 µM | [51] > 100 µM | [52] > 100 µM | [53] > 100 µM | [54] > 100 µM
> 100 µM: [14]

O=c1nc(NC(c2ccccc2)(c2ccccc2)c2ccccc2)ccn1CCNCCn1ccc(NC(c2ccccc2)(c2ccccc2)c2ccccc2)nc1=O
> 100 µM: [14]
inactive: [1] 14.1 µM | [2] 27 µM | [3] 26.2 µM | [4] 40.6 µM | [5] 14.8 µM | [6] 5.96 µM | [7] 10.7 µM | [8] 6.53 µM | [9] 3.23 µM | [10] 4.16 µM | [11] 18.7 µM | [12] 3.96 µM | [13] 3.92 µM | [15] 2.41 µM | [16] 16.3 µM | [17] 15.5 µM | [18] 5.45 µM | [55] 5.83 µM | [19] 5.15 µM | [20] 3.46 µM | [21] 10 µM | [22] 3.44 µM | [23] 2.84 µM | [24] 5.26 µM | [25] 18.3 µM | [26] 4.46 µM | [28] 11.8 µM | [29] 14.5 µM | [30] 12.5 µM | [31] 11.8 µM | [32] 4.66 µM | [33] 11.9 µM | [34] 14.2 µM | [35] 31 µM | [36] 10.7 µM | [37] 2.55 µM | [56] 11.8 µM | [38] 4.84 µM | [57] 11.5 µM | [39] 11.3 µM | [40] 6.07 µM | [41] 2.66 µM | [42] 5.48 µM | [43] 19.6 µM | [44] 12.4 µM | [45] 9.27 µM | [46] 20.2 µM | [48] 6.64 µM | [49] 26.9 µM | [50] 4.33 µM | [51] 5.82 µM | [52] 4.42 µM | [53] > 100 µM | [54] 4.11 µM

O=c1[nH]cc(COCCCO)c(=O)[nH]1
> 100 µM: [14]
inactive: [1] > 100 µM | [2] > 100 µM | [3] > 100 µM | [4] > 100 µM | [5] > 100 µM | [6] > 100 µM | [7] > 100 µM | [8] > 100 µM | [10] > 100 µM | [11] > 100 µM | [13] > 100 µM | [15] > 100 µM | [16] > 100 µM | [17] > 100 µM | [18] > 100 µM | [55] > 100 µM | [19] > 100 µM | [20] > 100 µM | [21] > 100 µM | [22] > 100 µM | [23] > 100 µM | [24] > 100 µM | [25] > 100 µM | [26] > 100 µM | [27] > 100 µM | [28] > 100 µM | [29] > 100 µM | [30] 53.5 µM | [31] > 100 µM | [32] > 100 µM | [33] > 100 µM | [34] > 100 µM | [35] > 100 µM | [36] > 100 µM | [37] > 100 µM | [56] > 100 µM | [38] > 100 µM | [57] > 100 µM | [39] > 100 µM | [40] > 100 µM | [41] > 100 µM | [42] > 100 µM | [43] > 100 µM | [44] > 100 µM | [45] > 100 µM | [46] > 100 µM | [58] > 100 µM | [47] > 100 µM | [48] > 100 µM | [49] > 100 µM | [50] > 100 µM | [51] > 100 µM | [52] > 100 µM | [53] > 100 µM | [54] > 100 µM
